# Results reported in ChEMBL document CHEMBL1201862, “PubChem BioAssay data set” (2004).
# The source made the active and inactive calls. For most assays here, no stated cut-off is given here; in the data, actives have a measured EC50 and inactives only a lower limit.
# Legend:
# INS1 = test: beta cell apoptosis inhibitors, cytokine rescue, dose response, luminescence, retest (AID 449756); type: functional, cell-based; conditions: Rattus norvegicus;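 further: cell death triggered by IL-1 beta plus TNF-alpha plus IFN-gamma mixture; protective hits raise ATP signal compared with cytokine alone wells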
# [1] = Luminescence Cell-Based Dose Retest to Confirm Inhibitors of Cancer Stem Cells. [Related pubchem assays (depositor defined):AID2717, AID2721]; type: functional; conditions: Homo sapiens
# [2] = Luminescence Cell-Based Dose Confirmation HTS to Identify Activators of 5'UTR Stem-Loop Driven Alpha-Synuclein mRNA Translation in H4 Neuroglioblastoma Cells. [Related pubchem assays: 1829 (Project Summary), 1814 (Primary HTS)]; type: functional
# [3] = Luminescence Cell-Based Dose Response HTS to Identify Activators of Luciferase Translation or Activity in H4 […] Cells. [Related pubchem assays: 1829 (Project Summary), 1814 (Primary HTS)]; type: functional
# H4 = test: Luminescence Cell-Based Dose Response HTS to Identify Activators of 5'UTR Stem-Loop Driven Prion Protein mRNA Translation in H4 Neuroglioblastoma Cells. [Related pubchem assays: 1829 (Project Summary), 1814 (Primary HTS)]; type: functional; conditions: Homo sapiens
# [4] = P. falciparum Dd2 growth inhibitors, dose response, SYBR Green, cherry-picked samples (AID 1159567); type: functional, cell-based
# [5] = NIH-3T3 fibroblast cytotoxicity, dose response, cytotoxicity control, cell-based, fluorescence, Alamar Blue, secondary assay (AID 2327); type: functional;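 further: NIH-3T3 mouse fibroblasts cultured with fluconazole at 8 µg/mL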
# [6] = C. albicans growth with fluconazole, confirmation, fluorescence, retest (AID 2467); type: functional, cell-based
# [7] = Luminescence Cell-Based Dose Confirmation HTS to Identify Inhibitors of Platelet Dense Granule Release. [Related pubchem assays: 1663 (Primary HTS), 1678 (Summary of Project)]; type: functional
# [8] = target: Luciferin 4-monooxygenase (Photinus pyralis, UniProt P08659); test: firefly luciferase enzyme inhibitors, dose response, biochemical, luminescence (AID 1891)
# Paired box protein Pax-8 = Paired box protein Pax-8 (Homo sapiens, UniProt Q06710); test: inhibitors of PAX8-driven TPO luciferase reporter, dose response, RMG-I cells, cherry-pick (AID 687027); type: functional, cell-based;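 further: luciferase reporter driven by Pax8 target thyroperoxidase promoter measured by SteadyGlo luminescence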
# [9] = target: T1, Short transient receptor potential channel 4 (Mus musculus, UniProt Q9QUQ5); test: mouse TRPC4 channel inhibitors, dose response, cell-based, HEK293 TRPC4/mu-opioid, Fluo-4 calcium (AID 434942); type: functional;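 further: potency of inhibitors blocking the TRPC4 calcium response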
# T1 sequence (Q9QUQ5 whole entry): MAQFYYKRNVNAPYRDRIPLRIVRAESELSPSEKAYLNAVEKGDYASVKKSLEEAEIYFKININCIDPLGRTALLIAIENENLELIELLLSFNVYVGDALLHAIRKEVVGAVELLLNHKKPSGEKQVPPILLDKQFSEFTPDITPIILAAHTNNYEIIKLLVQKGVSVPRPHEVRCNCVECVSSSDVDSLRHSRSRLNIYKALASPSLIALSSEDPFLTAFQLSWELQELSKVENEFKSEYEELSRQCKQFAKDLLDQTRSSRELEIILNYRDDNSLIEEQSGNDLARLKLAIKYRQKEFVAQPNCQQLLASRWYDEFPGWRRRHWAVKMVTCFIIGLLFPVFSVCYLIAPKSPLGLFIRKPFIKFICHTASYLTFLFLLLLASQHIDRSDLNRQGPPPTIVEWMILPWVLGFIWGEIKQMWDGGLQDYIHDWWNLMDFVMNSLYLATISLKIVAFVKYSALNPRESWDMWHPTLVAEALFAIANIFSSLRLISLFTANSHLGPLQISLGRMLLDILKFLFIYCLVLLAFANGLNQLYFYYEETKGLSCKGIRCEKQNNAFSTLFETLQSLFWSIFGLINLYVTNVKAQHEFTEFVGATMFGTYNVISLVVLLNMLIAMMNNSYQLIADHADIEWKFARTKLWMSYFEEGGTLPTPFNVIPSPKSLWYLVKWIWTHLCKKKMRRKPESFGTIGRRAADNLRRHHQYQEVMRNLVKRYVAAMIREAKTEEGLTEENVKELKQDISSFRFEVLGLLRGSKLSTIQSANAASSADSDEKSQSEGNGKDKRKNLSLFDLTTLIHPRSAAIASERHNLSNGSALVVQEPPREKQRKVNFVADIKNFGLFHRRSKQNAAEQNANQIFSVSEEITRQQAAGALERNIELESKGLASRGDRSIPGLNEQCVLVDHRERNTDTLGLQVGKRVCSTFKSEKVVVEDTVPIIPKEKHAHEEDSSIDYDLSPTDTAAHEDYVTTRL
# [10] = inhibitors of HIV Env-driven cell fusion, dose response, cherry-pick (AID 652057); type: functional, cell-based
# Chain of Luciferin 4-monooxygenase (P08659 whole entry): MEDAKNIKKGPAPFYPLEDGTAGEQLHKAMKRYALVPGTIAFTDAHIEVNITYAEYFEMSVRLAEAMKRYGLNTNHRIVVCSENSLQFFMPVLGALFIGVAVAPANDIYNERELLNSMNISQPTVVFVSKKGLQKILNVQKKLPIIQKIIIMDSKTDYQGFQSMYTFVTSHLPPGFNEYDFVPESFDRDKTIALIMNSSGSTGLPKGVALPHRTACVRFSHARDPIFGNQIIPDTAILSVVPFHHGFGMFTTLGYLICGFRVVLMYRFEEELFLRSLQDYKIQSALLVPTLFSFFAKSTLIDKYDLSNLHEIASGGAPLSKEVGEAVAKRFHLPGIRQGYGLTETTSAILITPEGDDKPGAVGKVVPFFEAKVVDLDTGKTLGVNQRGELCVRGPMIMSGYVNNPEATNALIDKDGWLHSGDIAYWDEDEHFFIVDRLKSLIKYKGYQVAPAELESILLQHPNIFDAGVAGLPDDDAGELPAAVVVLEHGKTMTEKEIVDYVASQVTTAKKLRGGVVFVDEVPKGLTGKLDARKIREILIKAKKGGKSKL
# Chain of Paired box protein Pax-8 (Q06710 whole entry): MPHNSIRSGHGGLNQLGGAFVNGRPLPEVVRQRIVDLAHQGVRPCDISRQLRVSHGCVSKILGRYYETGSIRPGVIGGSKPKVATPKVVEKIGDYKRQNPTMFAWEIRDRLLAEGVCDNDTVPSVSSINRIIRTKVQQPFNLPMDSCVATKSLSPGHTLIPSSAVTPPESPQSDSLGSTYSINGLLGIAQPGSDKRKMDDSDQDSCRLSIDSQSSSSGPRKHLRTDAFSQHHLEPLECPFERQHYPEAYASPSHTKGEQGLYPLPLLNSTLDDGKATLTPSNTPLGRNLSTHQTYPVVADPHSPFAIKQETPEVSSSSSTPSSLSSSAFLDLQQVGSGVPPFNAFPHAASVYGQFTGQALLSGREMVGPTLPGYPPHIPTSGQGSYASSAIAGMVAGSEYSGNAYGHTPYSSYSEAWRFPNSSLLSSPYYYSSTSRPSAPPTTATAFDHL
smiles,measurement,setting,value
O=C(N/N=C/c1cc(Cl)ccc1O)C(=O)Nc1ccccc1OC(F)(F)C(F)F,AC50,INS1,2.7 µM (active)
same,AC50,[1],2.35 µM (active)
O=C(/C=C/c1ccc(S(=O)(=O)NCc2ccco2)cc1)NCc1ccccc1Cl,EC50,[2],> 120 µM (not active)
same,EC50,[3],> 120 µM (not active)
same,EC50,H4,16.4 µM (active)
C/C=C/c1ccc([C@@H]2[C@H]3CNC[C@@H]2N3Cc2cc(F)ccc2F)cc1,AC50,[4],4 µM (active)
CCOc1cccc(-c2cc(-c3nnc(S)n3CC)c3ccccc3n2)c1,EC50,[5],> 160 µM (inactive)
same,EC50,[6],4.13 µM (active)
NC(=O)CC(NC(=O)Cc1cccc2ccccc12)c1ccc(N2CCc3ccccc3C2)c([N+](=O)[O-])c1 (stereo not drawn),AC50,[1],12.2 µM (active)
CCS(=O)(=O)N1CCC2(CC1)CN(Cc1cc(F)ccc1F)[C@H](CO)c1c2c2ccc(OC)cc2n1C,AC50,[4],6.16 µM (active)
COC(=O)Cc1c(C)c2ccc(OCC(=O)N3CCC(C)CC3)c(C)c2oc1=O,EC50,[7],22.1 µM (active)
same,EC50,[8],> 112 µM (not active)
O=C1C2CCN(CC2)C1Cc1ccc(OCc2ccccc2)cc1 (stereo not drawn),EC50,[5],24 µM (inconclusive)
same,EC50,[6],2.41 µM (active)
C[C@H]1CCCCO[C@@H](CN(C)C(=O)c2ccccc2)[C@@H](C)CN([C@@H](C)CO)C(=O)c2cc(NC(=O)Nc3ccc(C(F)(F)F)cc3)ccc2O1,AC50,Paired box protein Pax-8,3.76 µM (active)
CC(=O)OCCCN1C(=O)c2cccc3cc(Br)cc(c23)C1=O,EC50,[9],0.211 µM (active)
CSc1nc2nccc(/C=C\c3ccccc3)n2n1,EC50,[2],> 120 µM (not active)
same,EC50,[3],> 120 µM (not active)
same,EC50,H4,> 120 µM (not active)
COc1cc(OC)cc(C(=O)Nc2ccc3c(c2)OCCO3)c1,EC50,[7],6.36 µM (active)
same,EC50,[8],3.95 µM (active)
O=[N+]([O-])c1ccccc1N/N=C1\CCc2ccccc21,EC50,[3],0.268 µM (active)
same,EC50,H4,2.24 µM (active)
Cc1nn(-c2nc3ccccc3n2Cc2ccccc2)c2c1C(=O)CC(C)(C)C2,EC50,[9],2.11 µM (active)
Oc1ccc(Cc2ccccc2)c2cccnc12,AC50,Paired box protein Pax-8,4.48 µM (active)
Cc1ccc(C(=O)N/N=C\c2ccc(-c3ccc(Cl)c(Cl)c3)o2)cn1,AC50,[1],3.71 µM (active)
CSc1ncccc1C(=O)OCC(=O)Nc1ccc(C)c(S(=O)(=O)N2CCOCC2)c1,AC50,[10],53.2 µM (active)
CCc1nnc(NC(=O)CSc2nc3c(cc2C#N)CCC3)s1,EC50,[3],0.131 µM (active)
same,EC50,H4,> 120 µM (not active)
CC(=O)N1CCC(=NNc2nc3ccccc3s2)CC1,EC50,[5],> 160 µM (inactive)
same,EC50,[6],> 38 µM (not active)
Cn1c(S)nnc1-c1cnn(-c2ccccc2)c1N,EC50,[7],4.85 µM (active)
same,EC50,[8],> 112 µM (not active)
COc1cc(-c2nc(-c3ccc(NC(=O)c4ccc(Br)o4)cc3)no2)cc(OC)c1OC,AC50,[1],0.725 µM (active)
Cc1c(CCOC(=O)c2cccc([N+](=O)[O-])c2)sc[n+]1CC(=O)c1ccccc1,EC50,[9],6.68 µM (active)
O=C(CNC(=O)c1cn2ccccc2n1)Nc1ccc(F)c(F)c1,EC50,[2],0.453 µM (active)
same,EC50,[3],45.5 µM (active)
same,EC50,H4,> 120 µM (not active)
Cc1ccc(C2NNC(=O)C2NC(=O)c2ccccc2)cc1 (stereo not drawn),EC50,[2],11.3 µM (active)
same,EC50,[3],9.08 µM (active)
same,EC50,H4,48.6 µM (active)
CCOC(=O)CSc1nc2c(sc(=S)n2-c2ccccc2OC)c(=O)n1-c1ccccc1OC,EC50,[9],2.37 µM (active)
CCc1cc2c(=O)c(-c3nc4ccccc4n3C)c(COCC(=O)O)oc2cc1O,EC50,[2],> 120 µM (not active)
same,EC50,[3],> 120 µM (not active)
same,EC50,H4,> 120 µM (not active)
O=C(NCc1ccccc1)/C(NC(=O)c1ccccc1)=C(/Sc1ccccn1)c1ccccc1,EC50,[7],> 112 µM (not active)
same,EC50,[8],> 112 µM (not active)
CC1=NN(C(C#N)c2cccc([N+](=O)[O-])c2)C(C)(C)C1 (stereo not drawn),EC50,[7],> 112 µM (not active)
same,EC50,[8],> 112 µM (not active)
COc1ccccc1-c1ccc2c(c1)O[C@H](CN(C)Cc1ccc3c(c1)OCO3)[C@H](C)CN([C@@H](C)CO)S2(=O)=O,AC50,Paired box protein Pax-8,13.5 µM (active)
Cc1cnc(C(=O)N2CCCC(C(=O)c3ccc(Cl)cc3C)C2)cn1 (stereo not drawn),EC50,[7],> 112 µM (not active)
same,EC50,[8],> 112 µM (not active)
C[C@@H]1CCCCO[C@H](CN(C)S(=O)(=O)c2ccc(Cl)cc2)[C@H](C)CN([C@@H](C)CO)C(=O)c2cc(NS(=O)(=O)c3ccc(F)cc3)ccc2O1,AC50,Paired box protein Pax-8,4.33 µM (active)
COC(=O)c1c(-c2cccs2)csc1NC(=O)c1cccnc1,EC50,[5],> 160 µM (inactive)
same,EC50,[6],2.49 µM (active)
Cc1c(C(=O)Nc2ccccc2)sc2nc(-c3ccccc3)cn12,EC50,[2],4.41 µM (active)
same,EC50,[3],6.59 µM (active)
same,EC50,H4,44.2 µM (active)
COC(=O)C1(Cc2cc(-c3ccccc3)no2)CCN(C(=O)OC(C)(C)C)CC1,EC50,[2],9.17 µM (active)
same,EC50,[3],49.6 µM (active)
same,EC50,H4,55.7 µM (active)
CN1CCN(c2ccc(NC(=O)c3ccc(Cl)cc3)cn2)CC1,AC50,[1],19.8 µM (active)
CCCCCC(=O)Nc1nc(C)c(-c2csc(Nc3cc(OC)ccc3OC)n2)s1,AC50,[1],1.29 µM (active)
O=C(Nc1ccc2c(c1)OCCO2)NC12CC3CC(CC(C3)C1)C2,EC50,[2],5.22 µM (active)
same,EC50,[3],0.516 µM (active)
same,EC50,H4,> 120 µM (not active)
COc1cc(C2NCC(c3ccc(Cl)cc3Cl)c3c2[nH]c2ccccc32)cc(OC)c1OC (stereo not drawn),AC50,[1],3.7 µM (active)
CN1C(=O)/C(=C/c2cn(CC(=O)N3CCCCC3)c3ccccc23)NC1=S,EC50,[5],> 150 µM (inactive)
same,EC50,[6],> 38 µM (not active)
N#Cc1c(Cl)nsc1NC(=O)c1ccccc1,EC50,[5],22.2 µM (active)
same,AC50,INS1,3.29 µM (active)
same,EC50,[6],0.626 µM (active)
CC(=O)Oc1ccc(-c2cc3c(OC(C)=O)cc(OC(C)=O)cc3oc2=O)cc1,EC50,[7],13.7 µM (active)
same,EC50,[8],> 112 µM (not active)
COc1ccc(C(CNC(=O)c2oc3ccc(F)cc3c2C)N2CCCCC2)cc1 (stereo not drawn),EC50,[9],1.88 µM (active)
O=C(COc1ccc2c(c1)CCC2)NCc1cccc(Cl)c1,EC50,[5],> 160 µM (inconclusive)
same,EC50,[6],> 38 µM (not active)
Oc1ccc(C[C@H]2CNC(=S)N2CC2CCCN2C[C@H](Cc2ccc(O)cc2)N2C[C@H](Cc3ccc(O)cc3)N(CC3CCCCCC3)C2=S)cc1 (stereo partly drawn),AC50,Paired box protein Pax-8,5.35 µM (active)
CN(C)C(=O)CN1C(=O)C2CC=C(Cl)CC2C1=O (stereo not drawn),EC50,[7],> 112 µM (not active)
same,EC50,[8],> 112 µM (not active)
COc1ccc(C(=O)NC2CCSc3ccccc32)cc1 (stereo not drawn),EC50,[7],> 112 µM (not active)
same,EC50,[8],> 112 µM (not active)
CC(C)N=C(S)N1CCN(C/C=C/c2ccccc2)CC1,EC50,[9],4.73 µM (active)
Cc1cc(C)c2nc(O)c(CN(Cc3cccnc3)C(S)=NCCCN(C)C)cc2c1,EC50,[9],2.37 µM (active)
CCOC(=O)C1(Cc2ccccc2)CCN(Cc2ccc(C)s2)CC1,EC50,[9],0.133 µM (active)
Cc1cc(C)n2nc(Nc3ccccc3)cc2n1,EC50,[2],6.86 µM (active)
same,EC50,[3],15.8 µM (active)
Cc1ccc(C(=O)Cn2ncsc2=N)cc1,EC50,[2],13.5 µM (active)
same,EC50,[3],16.8 µM (active)
C=CCNc1ncnc2c1[nH]c1ccc(Cl)cc12,EC50,[2],89.5 µM (active)
same,EC50,[3],43 µM (active)
CC1(c2ccccc2)CC(C)(C)N(C(=O)C2CCCO2)c2ccccc21 (stereo not drawn),EC50,[9],3.76 µM (active)
Clc1ccc2c(c1)-c1nnc(Br)n1-c1ccccc1S2,EC50,[9],5.96 µM (active)
